# Experimental data taken from the Kinase Knowledgebase extract (Sharma et al. 2016).
# pIC50: −log10 of the molar value.
# Target: MAPK14 (human) (UniProt Q16539)
# Experiment: Inhibition of MAPK14 Kinase Activity
# Chain of MAPK14 (human) (Q16539 whole entry, looked up): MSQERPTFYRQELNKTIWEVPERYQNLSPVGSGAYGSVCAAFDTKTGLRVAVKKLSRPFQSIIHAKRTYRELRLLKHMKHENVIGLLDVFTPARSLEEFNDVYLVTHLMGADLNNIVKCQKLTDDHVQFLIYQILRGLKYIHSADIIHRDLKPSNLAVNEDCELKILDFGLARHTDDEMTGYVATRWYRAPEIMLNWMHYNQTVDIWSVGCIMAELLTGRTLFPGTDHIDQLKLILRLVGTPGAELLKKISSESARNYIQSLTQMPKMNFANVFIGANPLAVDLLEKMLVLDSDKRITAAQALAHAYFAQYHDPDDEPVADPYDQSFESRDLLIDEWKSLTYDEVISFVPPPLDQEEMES
row,pIC50,Compound
1,≥ 5.00,O=C1CCC(Sc2ccccc2F)CN1C1C(Cl)CCCC1Cl (stereo not drawn)
2,≥ 5.00,Cc1ccc(CC2CCC(=O)N(c3c(Cl)csc3Cl)C2)cc1 (stereo not drawn)
3,≥ 5.00,O=C(Cc1ccccc1)Nc1sc(Cl)c(N2CC(Sc3ccc(F)cc3F)CCC2=O)c1Cl (stereo not drawn)
4,≥ 5.00,COc1ccc(OC2CCC(=O)N(c3c(Cl)ccnc3Cl)C2)cc1 (stereo not drawn)
5,≥ 5.00,CNC1CCC(Cl)C(N2CC(Cc3ccc(F)cc3F)CCC2=O)C1Cl (stereo not drawn)
6,≥ 5.00,O=C1COC(Cc2ccc3ccccc3c2)CN1c1c(Cl)cccc1Cl (stereo not drawn)
7,≥ 5.00,CC(=O)Nc1cc(Cl)c(N2CC(Sc3ccc(F)cc3F)CCC2=O)c(Cl)n1 (stereo not drawn)
8,≥ 5.00,Cc1ccc(CC2CCC(=O)N(c3c(Cl)ccnc3Cl)C2)c(C)c1 (stereo not drawn)
9,≥ 5.00,Cc1ccc(CC2CCC(=O)N(c3c(Cl)cncc3Cl)C2)cc1 (stereo not drawn)
10,≥ 5.00,O=C1CCC(Cc2ccc(F)cc2F)CN1c1cc(Cl)cc(Cl)c1 (stereo not drawn)
11,≥ 5.00,O=C1CCC(Sc2ccc(F)cc2F)CN1c1c(Cl)cncc1Cl (stereo not drawn)
12,≥ 5.00,CNc1ncc(Cl)c(N2CC(Sc3ccc(F)cc3F)CCC2=O)c1Cl (stereo not drawn)
13,≥ 5.00,O=C1CCC(Sc2ccccc2F)CN1c1c(Cl)cccc1Cl (stereo not drawn)
14,≥ 5.00,O=C(Cc1ccccc1)Nc1ncc(Cl)c(N2CC(Oc3ccc(F)cc3F)CCC2=O)c1Cl (stereo not drawn)
15,≥ 5.00,O=C1CSC(Cc2ccc(F)cc2)CN1c1c(Cl)cccc1Cl (stereo not drawn)
16,≥ 5.00,O=C1CCC(Sc2ccc(Cl)cc2)CN1c1c(Cl)ccnc1Cl (stereo not drawn)
17,≥ 5.00,CN1CC(Cc2ccc(F)cc2F)CN(c2c(Cl)cc(O)cc2Cl)C1=O (stereo not drawn)
18,≥ 5.00,O=C1CCC(Oc2ccccc2Cl)CN1C1C(Cl)CCCC1Cl (stereo not drawn)
19,≥ 5.00,O=C1CCC(Sc2ccc(Cl)cc2)CN1C1C(Cl)CCCC1Cl (stereo not drawn)
20,≥ 5.00,O=C1CCC(Oc2cc(F)cc(F)c2)CN1C1C(Cl)CCCC1Cl (stereo not drawn)
21,≥ 5.00,Cc1ccccc1SC1CCC(=O)N(C2C(Cl)CCCC2Cl)C1 (stereo not drawn)
22,≥ 5.00,O=C1NCC(Cc2ccc(Cl)cc2Cl)CN1c1c(Cl)cccc1Cl (stereo not drawn)
23,≥ 5.00,O=C1CCC(Sc2cc(Cl)cc(Cl)c2)CN1c1c(Cl)ccnc1Cl (stereo not drawn)

row,pIC50,Compound
1,≥ 5.00,O=C1CCC(Cc2ccccc2F)CN1C1C(Cl)CCCC1Cl (stereo not drawn)
2,≥ 5.00,CN1CC(Cc2ccccc2F)CN(c2c(Cl)cccc2Cl)C1=O (stereo not drawn)
3,≥ 5.00,COc1ccc(OC2CCC(=O)N(c3c(Cl)cccc3Cl)C2)cc1 (stereo not drawn)
4,≥ 5.00,O=C1CCC(Cc2ccccc2)CN1c1ccccc1Cl (stereo not drawn)
5,≥ 5.00,O=C(Cc1ccccc1)Nc1ncc(Cl)c(N2CC(Sc3ccc(F)cc3F)CCC2=O)c1Cl (stereo not drawn)
6,≥ 5.00,O=C1NCC(Cc2ccc(F)cc2F)CN1c1c(Cl)ccc(O)c1Cl (stereo not drawn)
7,≥ 5.00,CNC1CC(Cl)C(N2CC(Cc3ccc(F)cc3F)CCC2=O)C(Cl)C1 (stereo not drawn)
8,≥ 5.00,O=C1CCC(Cc2ccc(F)cc2F)CN1c1c(Cl)cc(NCCO)cc1Cl (stereo not drawn)
9,≥ 5.00,COc1ccccc1SC1CCC(=O)N(C2C(Cl)CCCC2Cl)C1 (stereo not drawn)
10,≥ 5.00,N#CCCc1cc(Cl)c(N2CC(Cc3ccc(F)cc3F)CCC2=O)c(Cl)c1 (stereo not drawn)
11,≥ 5.00,O=C1CCC(Oc2ccc3ccccc3c2)CN1c1c(Cl)cccc1Cl (stereo not drawn)
12,≥ 5.00,O=C1CCC(Sc2ccc(Cl)cc2Cl)CN1c1c(Cl)ccnc1Cl (stereo not drawn)
13,≥ 5.00,O=C1OCC(Cc2ccc(F)cc2F)CN1c1c(Cl)cccc1Cl (stereo not drawn)
14,≥ 5.00,CC(c1ccc(F)cc1F)C1CCC(=O)N(c2c(Cl)cccc2Cl)C1 (stereo not drawn)
15,≥ 5.00,CNC1CCC(Cl)C(N2CC(Oc3ccc(F)cc3F)CCC2=O)C1Cl (stereo not drawn)
16,≥ 5.00,O=C1SCC(Cc2cc(Cl)cc(Cl)c2)CN1c1c(Cl)cccc1Cl (stereo not drawn)
17,≥ 5.00,O=C1CCC(Cc2ccc(F)cc2F)CN1c1c(Cl)csc1Cl (stereo not drawn)
18,≥ 5.00,Cc1ccccc1CC1CCC(=O)N(C2C(Cl)CCCC2Cl)C1 (stereo not drawn)
19,≥ 5.00,Cc1cc(C)cc(CC2CNC(=O)N(c3c(Cl)cccc3Cl)C2)c1 (stereo not drawn)
20,≥ 5.00,O=C1CCC(Oc2ccc(F)cc2F)CN1C1C(Cl)CC(O)CC1Cl (stereo not drawn)
21,≥ 5.00,O=C1CCC(Cc2ccccc2F)CN1c1c(Cl)cccc1Cl (stereo not drawn)
22,≥ 5.00,O=C1NCC(Cc2ccccc2)CN1c1c(Cl)cccc1Cl (stereo not drawn)
23,≥ 5.00,O=C(N[C@H]1C[C@H](Cc2ccc(F)cc2F)CN(c2c(Cl)cccc2Cl)C1=O)OCc1ccccc1

row,pIC50,Compound
1,≥ 5.00,O=C1CCC(Oc2ccc(F)cc2)CN1c1c(Cl)cccc1Cl (stereo not drawn)
2,≥ 5.00,CN1CC(Cc2ccc(F)cc2F)CN(c2c(Cl)cc(CO)cc2Cl)C1=O (stereo not drawn)
3,≥ 5.00,Cc1ccc(SC2CCC(=O)N(C3C(Cl)CCCC3Cl)C2)cc1 (stereo not drawn)
4,≥ 5.00,Cc1cccc(C)c1N1C[C@H](Cc2ccc(F)cc2F)C[C@@H](C)C1=O
5,≥ 5.00,COc1ccc(OC2CCC(=O)N(c3c(Cl)csc3Cl)C2)cc1 (stereo not drawn)
6,≥ 5.00,Cc1ccc(SC2CCC(=O)N(c3c(Cl)csc3Cl)C2)cc1 (stereo not drawn)
7,≥ 5.00,CC(C)(C)OC(=O)N(CCN)c1cc(Cl)c(N2CC(Cc3ccc(F)cc3F)CCC2=O)c(Cl)c1 (stereo not drawn)
8,≥ 5.00,O=C1CCC(Cc2ccccc2F)CN1c1c(Cl)csc1Cl (stereo not drawn)
9,≥ 5.00,Cc1ccccc1CC1CCC(=O)N(c2c(Cl)csc2Cl)C1 (stereo not drawn)
10,≥ 5.00,CC[C@H]1C[C@@H](Cc2ccc(F)cc2F)CN(c2c(Cl)cccc2Cl)C1=O
11,≥ 5.00,O=C1CCC(Cc2ccc(F)cc2)CN1c1c(Cl)ccnc1Cl (stereo not drawn)
12,≥ 5.00,CN(C)CCNc1cc(Cl)c(N2CC(Cc3ccccc3F)CCC2=O)c(Cl)c1 (stereo not drawn)
13,≥ 5.00,Nc1cnc(Cl)c(N2CC(Cc3ccc(F)cc3F)CCC2=O)c1Cl (stereo not drawn)
14,≥ 5.00,CNc1cc(Cl)c(N2CC(Cc3ccc(F)cc3F)OCC2=O)c(Cl)c1 (stereo not drawn)
15,≥ 5.00,Nc1ccc(Cl)c(N2CC(Oc3ccc(F)cc3F)CCC2=O)c1Cl (stereo not drawn)
16,≥ 5.00,CNC1CC(Cl)C(N2CC(Sc3ccc(F)cc3F)CCC2=O)C(Cl)C1 (stereo not drawn)
17,≥ 5.00,COc1ccccc1CC1COC(=O)N(c2c(Cl)cccc2Cl)C1 (stereo not drawn)
18,≥ 5.00,CN(C)CCNc1cc(Cl)c(N2CC(Cc3ccc(F)cc3F)CCC2=O)c(Cl)c1 (stereo not drawn)
19,≥ 5.00,COCC1CC(Cc2ccc(F)cc2F)CN(c2c(Cl)cccc2Cl)C1=O (stereo not drawn)
20,≥ 5.00,Cc1ccc(CC2COC(=O)N(c3c(Cl)cccc3Cl)C2)c(C)c1 (stereo not drawn)
21,≥ 5.00,Cc1ccc(SC2CCC(=O)N(c3c(Cl)csc3Cl)C2)c(C)c1 (stereo not drawn)
22,≥ 5.00,O=C1CCC(Cc2ccc(F)cc2F)CN1c1nccs1 (stereo not drawn)
23,≥ 5.00,O=C1SCC(Cc2ccccc2)CN1c1c(Cl)cccc1Cl (stereo not drawn)

row,pIC50,Compound
1,≥ 5.00,CCNC(=O)Nc1cc(Cl)c(N2CC(Cc3ccc(F)cc3F)CCC2=O)c(Cl)c1 (stereo not drawn)
2,≥ 5.00,CC(C)(C)OC(=O)N(CCO)c1cc(Cl)c(N2CC(Cc3ccc(F)cc3F)CCC2=O)c(Cl)c1 (stereo not drawn)
3,≥ 5.00,O=C1COC(Cc2ccccc2F)CN1c1c(Cl)cccc1Cl (stereo not drawn)
4,≥ 5.00,O=C1CCC(Cc2cccc3ccccc23)CN1C1C(Cl)CCCC1Cl (stereo not drawn)
5,≥ 5.00,O=C(Cc1ccccc1)Nc1ccc(Cl)c(N2CC(Cc3ccc(F)cc3F)SCC2=O)c1Cl (stereo not drawn)
6,≥ 5.00,O=C1CCC(Cc2ccccc2)CN1c1c(Cl)ccnc1Cl (stereo not drawn)
7,≥ 5.00,O=C1CCC(Cc2cc(Cl)cc(Cl)c2)CN1c1c(Cl)csc1Cl (stereo not drawn)
8,≥ 5.00,O=C1SCC(Cc2ccc(F)cc2F)CN1c1c(Cl)ccc(CO)c1Cl (stereo not drawn)
9,≥ 5.00,Cc1cccc(C)c1N1C[C@@H](N(CCO)S(=O)(=O)c2ccc(F)cc2F)CCC1=O
10,≥ 5.00,CNc1cnc(Cl)c(N2CC(Cc3ccc(F)cc3F)CCC2=O)c1Cl (stereo not drawn)
11,≥ 5.00,O=C1CCC(C(O)c2cccs2)CN1c1c(Cl)cc(Br)cc1Cl (stereo not drawn)
12,≥ 5.00,C[C@@H]1C[C@@H](Cc2ccc(F)cc2F)CN(c2c(Cl)cccc2Cl)C1=O
13,≥ 5.00,O=C1SCC(Cc2ccc(F)cc2F)CN1c1c(Cl)cccc1Cl (stereo not drawn)
14,≥ 5.00,O=C1CCC(Cc2ccccc2)CN1c1c(Cl)csc1Cl (stereo not drawn)
15,≥ 5.00,O=C(Cc1ccccc1)Nc1cc(Cl)c(N2CC(Cc3ccc(F)cc3F)CCC2=O)c(Cl)n1 (stereo not drawn)
16,≥ 5.00,Cc1ccc(CC2CNC(=O)N(c3c(Cl)cccc3Cl)C2)c(C)c1 (stereo not drawn)
17,≥ 5.00,Cc1ccc(CC2CCC(=O)N(C3C(Cl)CCCC3Cl)C2)c(C)c1 (stereo not drawn)
18,≥ 5.00,O=C(Cc1ccccc1)Nc1cc(Cl)c(N2CC(Cc3ccc(F)cc3F)COC2=O)c(Cl)c1 (stereo not drawn)
19,≥ 5.00,CC(=O)NCc1ccccc1CC1CCC(=O)N(c2c(Cl)cccc2Cl)C1 (stereo not drawn)
20,≥ 5.00,NC1CC(Cl)C(N2CC(Cc3ccc(F)cc3F)CCC2=O)C(Cl)C1 (stereo not drawn)
21,≥ 5.00,Cc1ccc(CC2CN(C)C(=O)N(c3c(Cl)cccc3Cl)C2)c(C)c1 (stereo not drawn)
22,≥ 5.00,Cc1cc(C(=O)NCCC(=O)O)cc(C)c1N1CC(Cc2ccc(F)cc2F)CCC1=O (stereo not drawn)
23,≥ 5.00,CN(C)CCNC(=O)c1cc(Cl)c(N2CC(Cc3ccc(F)cc3F)CCC2=O)c(Cl)c1 (stereo not drawn)

row,pIC50,Compound
1,≥ 5.00,COc1ccc(CC2CN(c3c(Cl)cccc3Cl)C(=O)CO2)cc1 (stereo not drawn)
2,≥ 5.00,CN1CC(Cc2ccc(F)cc2F)CN(c2c(Cl)ccc(NC(=O)Cc3ccccc3)c2Cl)C1=O (stereo not drawn)
3,≥ 5.00,O=C(Cc1ccccc1)Nc1ccc(Cl)c(N2CC(Oc3ccc(F)cc3F)CCC2=O)c1Cl (stereo not drawn)
4,≥ 5.00,COc1ccc(SC2CCC(=O)N(c3c(Cl)cncc3Cl)C2)cc1 (stereo not drawn)
5,≥ 5.00,O=C1CSC(Cc2ccc(Cl)cc2)CN1c1c(Cl)cccc1Cl (stereo not drawn)
6,≥ 5.00,O=C(Cc1ccccc1)Nc1cc(Cl)c(N2CC(Cc3ccc(F)cc3F)CCC2=O)c(Cl)c1 (stereo not drawn)
7,≥ 5.00,CC(=O)Nc1sc(Cl)c(N2CC(Sc3ccc(F)cc3F)CCC2=O)c1Cl (stereo not drawn)
8,≥ 5.00,Cc1nc(CNc2cc(Cl)c(N3CC(Cc4ccc(F)cc4F)CCC3=O)c(Cl)c2)c[nH]1 (stereo not drawn)
9,≥ 5.00,OCc1ccccc1CC1CCCN(c2c(Cl)cccc2Cl)C1 (stereo not drawn)
10,≥ 5.00,O=C1SCC(Cc2cc(F)cc(F)c2)CN1c1c(Cl)cccc1Cl (stereo not drawn)
11,≥ 5.00,Cc1cc(C#CCCN2CCN(C)CC2)cc(C)c1N1CC(Cc2ccc(F)cc2F)CCC1=O (stereo not drawn)
12,≥ 5.00,Cc1cc(N)cc(C)c1N1CC(Cc2ccc(F)cc2F)CCC1=O (stereo not drawn)
13,≥ 5.00,Cc1ccccc1CC1COC(=O)N(c2c(Cl)cccc2Cl)C1 (stereo not drawn)
14,≥ 5.00,O=C1CCC(Cc2ccc(Cl)cc2Cl)CN1c1c(Cl)ccnc1Cl (stereo not drawn)
15,≥ 5.00,CNc1cnc(Cl)c(N2CC(Oc3ccc(F)cc3F)CCC2=O)c1Cl (stereo not drawn)
16,≥ 5.00,CN(C)C(=O)CNc1cc(Cl)c(N2CC(Cc3ccc(F)cc3F)CCC2=O)c(Cl)c1 (stereo not drawn)
17,≥ 5.00,O=C1CCC(Cc2ccc(F)cc2F)CN1c1c(Cl)cc(C#CCCO)cc1Cl (stereo not drawn)
18,≥ 5.00,O=C1CCC(Cc2ccc(F)cc2F)CN1c1c(Cl)cc(NCCN2CCOCC2)cc1Cl (stereo not drawn)
19,≥ 5.00,O=C1CC/C(=C\c2ccc(F)cc2F)CN1c1c(Cl)cc(Br)cc1Cl
20,≥ 5.00,O=C1CCC(Cc2ccc(F)cc2F)CN1c1c(Cl)ccnc1Cl (stereo not drawn)
21,≥ 5.00,O=C1COC(Cc2ccc(F)cc2F)CN1c1c(Cl)cc(O)cc1Cl (stereo not drawn)
